Earlier results as cited in patent US9481672B2 (priority 2012, dated 2016).

Test system: chymase
Conditions: hamsters, myocardial infarction model

In the case of `CCOc1ccccc1CC1C(=O)N(C(=O)NC(c2ccc(C)cc2)c2ccc(C)cc2)C1Oc1ccc(C(=O)O)cc1` (stereo not drawn) [BCEAB], the chymase activity is listed as “reduced”, the haemodynamics is listed as “improved” and the mortality is listed as “reduced”.
